From US20260325464A1, “COMPOSITIONS FOR MODULATING THE EXPRESSION OF AQUAPORINS IN NEURODEGENERATIVE DISORDERS” (priority 2023, published 2026)

Tested on: Alzheimer's disease
Experiment: Elevated plus maze (EPM) test in rats with AlCl3-induced Alzheimer's disease
Assay type: in vivo, rat
Details: for EPM at 16th day Transfer Latency / EPM at 17th day Transfer Latency: p.o. + AlCl3 (100 mg/kg, i.p.), Mean ± SEM, n = 6
Experimental: Elevated plus maze (EPM)—Elevated plus maze (EPM)—This test was performed as per reported protocol (Bhuvanendran et al., Amelioration of cognitive deficit by Embelin in a Scopolamine-induced Alzheimer's disease-like condition in a rat model. Front Pharmacol. 2018:9(6):1-12 and Biradar et al., (2020) Experimental validation and network pharmacology evaluation to decipher the mechanism of action of Erythrina variegata L. bark against scopolamine-induced memory impairment in rats. Adv Tradit Med. 2020:26:1-4). EPM contains 2 closed and 2 open arms (four arms; equal dimensions of 50×10 cm). These 4 arms connect at central with a 10×10 cm square gap as an initial point. The transfer latency (TL) was recorded via stopwatch by keeping rats independently toward one side of the open arm. The EPM TL cut-off was set to 60 s throughout the study. […] Index of memory improvement is measured as a drop of transfer Latency (TL) by test drug.
The elevated plus maze is a test that is widely used to assess the anti-anxiety effects of test substances. As the test measures open arm activity, an increase in open arm activity (duration and/or entries) reflects anti-anxiety behaviour (Walf et al., The use of the elevated plus maze as an assay of anxiety-related behavior in rodents, Nat Protoc. 2007; 2(2): 322-328). In the present study, inducing Alzheimer's in the animals increased their anxiety which was reduced by the administration on Gingerenone A (Table 3).

COc1cc(CC/C=C/C(=O)CCc2ccc(O)c(OC)c2)ccc1O [Gingerenone A]
EPM at 16th day Transfer Latency (5 mg/kg): 25.70 ± 0.88 s
EPM at 17th day Transfer Latency (5 mg/kg): 25.21 ± 1.04 s
EPM at 16th day Transfer Latency (10 mg/kg): 21.76 ± 1.03 s
EPM at 17th day Transfer Latency (10 mg/kg): 19.37 ± 0.47 s
EPM at 16th day Transfer Latency (20 mg/kg): 19.38 ± 0.87 s
EPM at 17th day Transfer Latency (20 mg/kg): 18.59 ± 0.86 s
anxiety in EPM (in words) (AlCl3 model, Table 3): reduced
